Consider three molecules from ChEMBL document CHEMBL1201862, “PubChem BioAssay data set” (2004).

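Cultured in 96-well plates, cells were exposed to test compound for 48 hours across five concentrations. GI50 is the concentration that inhibits growth by half.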 Calls of active or inactive are those of the source. No stated cut-off is given here; in the data, active = GI50 up to about 1.1 µM and inactive = higher. A value given as a limit tells only on which side of the number the result lay.

Among the test systems are SF-539; SF-295; SK-OV-3; MCF7; ACHN; HL-60; M14; Hs-578T; COLO 205; 786-0; NCI-H23; T47D; HOP-92; RPMI-8226; MOLT-4; CAKI-1; SK-MEL-2; HCT-116; NCI-H522; KM12.
Holding throughout (assay): growth of human tumour cells (NCI), 48 h

Regarding `COc1ccc(-c2nc(N)c(C#N)c3c2CCSc2ccc(C)cc2-3)cc1OC`, the GI50 in the experiment with SF-539 was 17.1 µM (inactive); with SF-295, 6.67 µM (inactive); with SK-OV-3 it was 10.9 µM (inactive); in the experiment with MCF7, 12.1 µM (inactive); in the experiment on ACHN it was 19.9 µM (inactive); with HL-60, 2.89 µM (inactive). The GI50 with M14 was 29.1 µM (inactive); in the experiment on Hs-578T, 8.2 µM (inactive); in the experiment with COLO 205, 5.51 µM (inactive); in the experiment with 786-0, 15 µM (inactive); in the experiment with NCI-H23, 8.04 µM (inactive); in the experiment with T47D, 4.17 µM (inactive). Moreover, the GI50 with HOP-92 is 10.1 µM (inactive); with RPMI-8226 it was 0.594 µM (active); with MOLT-4 it was 3.49 µM (inactive); with CAKI-1, 19.6 µM (inactive); with SK-MEL-2, 25.4 µM (inactive); with HCT-116, 10.8 µM (inactive). In addition, the GI50 is 5.89 µM (inactive) in the experiment on NCI-H522 and 6.84 µM (inactive) in the experiment with KM12.

For `O=C(OCCNC(=O)N1CC1)OCCNC(=O)N1CC1`, the GI50 in the experiment on SF-539, with SF-295, in the experiment with SK-OV-3, in the experiment on MCF7, in the experiment on ACHN and in the experiment with HL-60 was > 10 µM (inactive) in each case. In addition, the GI50 in the experiment on M14, with Hs-578T, in the experiment with COLO 205, with 786-0, in the experiment with NCI-H23 and in the experiment with T47D was > 10 µM (inactive) in each case. The GI50 in the experiment on HOP-92, in the experiment on RPMI-8226, in the experiment with MOLT-4, in the experiment on CAKI-1, in the experiment on SK-MEL-2 and with HCT-116 was > 10 µM (inactive) throughout. Also, the GI50 in the experiment on NCI-H522 and with KM12 was > 10 µM (inactive) each time.

Turning to `Clc1cc(OC2C3CC4CC(C3)CC2C4)nc(Cl)n1` (stereo not given), the GI50 in the experiment on SF-539 is 20.7 µM (inactive); in the experiment on SF-295 it was 18 µM (inactive); in the experiment on SK-OV-3, 67.5 µM (inactive); in the experiment with MCF7 it was 18.3 µM (inactive); with ACHN, 17.7 µM (inactive); with HL-60, 3.08 µM (inactive). Also, the GI50 in the experiment on M14 is 16.2 µM (inactive); in the experiment on Hs-578T, 18.9 µM (inactive); in the experiment on COLO 205, 18.6 µM (inactive); in the experiment on 786-0, 16.8 µM (inactive); with NCI-H23, 14.8 µM (inactive); with T47D, 20.1 µM (inactive). Further, the GI50 with HOP-92 is 1.64 µM (inactive); in the experiment on RPMI-8226, 21 µM (inactive); with MOLT-4 it was 16.9 µM (inactive); in the experiment on CAKI-1, 0.723 µM (active); with SK-MEL-2, 12 µM (inactive); with HCT-116, 14.3 µM (inactive). The values for the GI50 in the experiment on NCI-H522 and in the experiment on KM12 were 12.4 µM (inactive) and 20.8 µM (inactive), respectively.
